In the supplement of paper PMC10307832:

Assays:
Experiment in all cases: relative viability (nuclei count vs DMSO), 5 days (fraction); higher = more cells survive
Zosuquidar + Palbociclib = compound: O[C@@H](COc1cccc2ncccc12)CN1CCN([C@@H]2c3ccccc3[C@@H]3[C@H](c4ccccc42)C3(F)F)CC1 [Zosuquidar] + CC(=O)c1c(C)c2cnc(Nc3ccc(N4CCNCC4)cn3)nc2n(C2CCCC2)c1=O [Palbociclib] (partner 0.5 µM)
Outline: (§1)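 Lung cancer cell lines in 1536-well plates were dosed by pin tool the day after seeding, either with one drug alone or with a fixed anchor-drug dose plus five library-drug doses (not always all listed) in √10 steps. After 5 days, cells were fixed and their nuclei stained in one step (final 0.05% Triton X-100, 1% formaldehyde, 1 ug/ml Hoechst), then counted on 4× images. Relative viability is the nuclei count in treated wells divided by that in vehicle wells. Values are medians of duplicate plates.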

Kobe2602 + Lapatinib = compound: C1=CC(=CC=C1NC(=S)NNC2=C(C=C(C=C2[N+](=O)[O-])C(F)(F)F)[N+](=O)[O-])F [Kobe2602] + CS(=O)(=O)CCNCc1ccc(-c2ccc3ncnc(Nc4ccc(OCc5cccc(F)c5)c(Cl)c4)c3c2)o1 [Lapatinib] (partner 2 µM)
Outline: as §1

Zosuquidar + Crizotinib = compound: O[C@@H](COc1cccc2ncccc12)CN1CCN([C@@H]2c3ccccc3[C@@H]3[C@H](c4ccccc42)C3(F)F)CC1 [Zosuquidar] + C[C@@H](Oc1cc(-c2cnn(C3CCNCC3)c2)cnc1N)c1c(Cl)ccc(F)c1Cl [Crizotinib] (partner 1 µM)
Outline: as §1

Zosuquidar + Trametinib = compound: O[C@@H](COc1cccc2ncccc12)CN1CCN([C@@H]2c3ccccc3[C@@H]3[C@H](c4ccccc42)C3(F)F)CC1 [Zosuquidar] + CC(=O)Nc1cccc(-n2c(=O)n(C3CC3)c(=O)c3c(Nc4ccc(I)cc4F)n(C)c(=O)c(C)c32)c1 [Trametinib] (partner 0.02 µM)
Outline: as §1

Row | Cell Line | relative viability (Zosuquidar + Palbociclib; first compound 0.01 µM) | relative viability (Zosuquidar + Palbociclib; first compound 0.03162 µM) | relative viability (Zosuquidar + Palbociclib; first compound 0.1 µM) | relative viability (Zosuquidar + Palbociclib; first compound 0.3162 µM) | relative viability (Zosuquidar + Palbociclib; first compound 1 µM) | relative viability (Kobe2602 + Lapatinib; first compound 0.2 µM) | relative viability (Kobe2602 + Lapatinib; first compound 0.6325 µM) | relative viability (Kobe2602 + Lapatinib; first compound 2 µM) | relative viability (Kobe2602 + Lapatinib; first compound 6.325 µM) | relative viability (Kobe2602 + Lapatinib; first compound 20 µM) | relative viability (Zosuquidar + Crizotinib; first compound 0.01 µM) | relative viability (Zosuquidar + Crizotinib; first compound 0.03162 µM) | relative viability (Zosuquidar + Crizotinib; first compound 0.1 µM) | relative viability (Zosuquidar + Crizotinib; first compound 0.3162 µM) | relative viability (Zosuquidar + Crizotinib; first compound 1 µM) | relative viability (Zosuquidar + Trametinib; first compound 0.01 µM) | relative viability (Zosuquidar + Trametinib; first compound 0.03162 µM) | relative viability (Zosuquidar + Trametinib; first compound 0.1 µM) | relative viability (Zosuquidar + Trametinib; first compound 0.3162 µM) | relative viability (Zosuquidar + Trametinib; first compound 1 µM)
1 | ABC-1 | 0.616 | 0.685 | 0.68 | 0.84 | 0.599 | 1.5 | 1.24 | 1.11 | 1.22 | 1.27 | 1.19 | 1.17 | 1.41 | 1.31 | 1.08 |  |  |  |  | 
2 | IA-LM |  |  |  |  |  | 0.584 | 0.614 | 0.732 | 0.805 | 0.811 |  | 0.804 | 1.05 | 1.03 | 0.861 |  |  |  |  | 
3 | NCI-H520 | 0.201 | 0.195 | 0.198 | 0.179 | 0.208 | 0.853 | 0.908 | 0.645 | 0.729 | 0.824 | 0.727 | 0.68 | 0.737 | 0.834 | 0.828 | 0.71 | 0.938 | 0.598 | 0.798 | 0.68
4 | NCI-H1915 | 0.501 | 0.542 | 0.501 | 0.635 | 0.507 | 0.998 | 1.04 | 0.969 | 1.02 | 1.03 | 0.868 | 0.938 | 0.887 | 0.882 | 0.909 | 0.296 | 0.284 | 0.297 | 0.321 | 0.301
5 | NCI-H1299 |  |  |  |  |  | 0.997 | 0.991 | 0.949 | 1.01 | 0.935 | 0.938 | 1.01 | 1.03 | 0.982 | 0.928 |  |  |  |  | 
6 | HCC-827 | 0.503 | 0.497 | 0.501 | 0.498 | 0.491 | 0.189 | 0.211 | 0.231 | 0.177 | 0.227 | 0.931 | 0.923 | 0.937 | 0.871 | 0.872 | 0.539 | 0.486 | 0.476 | 0.535 | 0.529
7 | EMC-BAC-2 | 0.508 | 0.451 | 0.544 | 0.577 | 0.521 | 0.89 | 0.935 | 0.904 | 0.904 | 0.909 | 0.78 | 0.724 | 0.767 | 0.843 | 0.765 | 0.92 | 0.988 | 0.842 | 1.02 | 0.883
8 | NCI-H650 | 0.305 | 0.327 | 0.331 | 0.364 | 0.378 | 0.852 | 1.07 | 1.19 | 1.04 | 0.99 | 0.641 | 0.762 |  | 0.731 | 0.721 | 1.22 | 0.957 | 1 | 0.969 | 1.08
9 | SW 900 | 0.568 | 0.558 |  | 0.665 | 0.596 |  |  |  |  |  |  |  |  |  |  | 0.666 | 0.715 |  | 1.05 | 0.988
10 | NCI-H1563 |  |  |  |  |  | 0.912 | 1.37 | 1.03 | 1.04 | 1.02 | 0.734 | 0.904 | 0.84 | 0.828 | 0.838 |  |  |  |  | 
11 | NCI-H1395 | 0.596 | 0.664 |  | 0.64 | 0.549 | 0.925 | 1.04 | 1.01 | 1.18 | 1.12 |  |  |  |  |  | 1.05 | 1.01 |  | 1.05 | 1.07
12 | Calu-6 |  |  |  |  |  | 1.08 | 1.14 | 1.1 | 1.04 | 0.995 | 0.872 | 0.764 | 0.879 | 0.844 | 0.791 |  |  |  |  | 
13 | NCI-H1793 | 0.271 |  |  | 0.333 | 0.306 | 1.03 | 0.663 | 0.621 | 0.623 | 0.78 |  |  |  |  |  | 0.423 |  |  | 0.445 | 0.434
14 | EBC-1 |  |  |  |  |  | 0.211 | 0.201 | 0.204 | 0.227 | 0.208 | 0.193 | 0.214 | 0.201 | 0.201 | 0.205 |  |  |  |  | 
15 | NCI-H2342 | 0.531 | 0.528 | 0.519 | 0.502 | 0.553 |  |  |  |  |  |  |  |  |  |  | 0.805 | 0.975 | 0.757 | 0.873 | 0.957
16 | NCI-H1703 |  |  |  |  |  | 0.903 | 0.975 | 0.925 | 0.982 | 0.694 | 0.785 | 1.13 | 0.682 | 0.582 | 1.01 |  |  |  |  | 
17 | ChaGo-K-1 | 0.885 | 0.994 | 1.02 | 0.917 | 0.947 |  |  |  |  |  | 1.08 | 1.2 | 1.32 | 1.1 | 1.13 | 0.893 | 0.922 | 0.874 | 0.943 | 0.897
18 | NCI-H441 | 0.239 | 0.223 | 0.216 | 0.281 | 0.242 |  |  |  |  |  | 0.681 | 0.788 | 0.689 |  | 0.742 | 0.417 | 0.464 | 0.345 | 0.557 | 0.437
19 | NCI-H1648 | 0.297 | 0.319 | 0.289 | 0.305 | 0.242 |  |  |  |  |  |  |  |  |  |  | 0.479 | 0.454 | 0.465 | 0.469 | 0.408
20 | NCI-H522 | 1.14 | 0.869 | 1.01 | 1.09 | 0.908 |  |  |  |  |  |  |  |  |  |  | 0.81 | 0.706 | 0.843 | 0.723 | 0.719
21 | A549 |  |  |  |  |  | 0.922 | 0.978 | 0.88 | 1.05 | 0.881 | 0.805 | 0.738 | 0.844 | 0.722 | 0.765 |  |  |  |  | 
22 | NCI-H596 |  |  |  |  |  | 1.18 | 1.19 | 1.05 | 0.934 | 1.17 | 1.03 | 0.898 | 1.01 | 1.06 | 1.02 | 0.762 | 1 | 0.857 | 0.776 | 0.79
23 | LCLC-103H | 0.453 | 0.717 | 0.513 | 0.489 | 0.482 |  |  |  |  |  | 1.07 | 1.09 | 0.991 | 0.892 | 0.989 | 0.679 | 0.654 | 0.679 | 0.676 | 0.622
